{"source": "patent US20200407717A1", "about": "“METHODS OF MODULATING ANTISENSE ACTIVITY” (Ionis Pharmaceuticals, Inc., priority 2018, published 2020)", "tested_on": "Drosha mRNA", "test": "Antisense activity by RT-qPCR, Drosha, A431 cells", "type": "cell-based, Human", "description": "A431 cells were grown at 10,000 cells per well and pre-treated with a variety of growth factors to determine if the addition of exogenous growth factors affects antisense activity or uptake of modified antisense oligonucleotides in a cell. The growth factors used were EGF, insulin growth factor (IGF), transforming growth factor (TGF), […] (VEGF), hepatocyte growth factor (HGF), platelet growth factor (PGF) and fibroblasts growth factor (FGF). To test antisense activity, cells were treated for 4 hours with a growth factor or vehicle alone, and then treated with compound no. 25690 (complementary to Drosha), compound no. 395254 (complementary to Malat1), or vehicle alone. RNA was isolated from the cells and Drosha or Malat1 RNA levels were measured by RT-qPCR. Human primer probe set 13816 (forward sequence […], designated herein as SEQ ID NO: 3; reverse sequence […], designated herein as SEQ ID NO: 4; probe sequence […], designated herein as SEQ ID NO: 5) was used to measure Drosha mRNA levels and primer probe set RTS2736 (forward sequence […], designated herein as SEQ ID NO: 6; reverse sequence […], designated herein as SEQ ID NO: 7; probe sequence TGCCACATCGCCACCCCGT, designated herein as SEQ ID NO: 8) was used to measure Malat1 RNA levels. Drosha and Malat1 RNA levels were normalized to total RNA content, as measured by RIBOGREEN®. Results are presented in the tables below as normalized RNA levels, relative to untreated control cells.\nA431 cells were treated with EGF or TGF at 200 ng/mL in the presence or absence of 1 μM of the EGFR tyrosine kinase inhibitor PD174265. The cells were then treated with compound no. 25690 or compound no. 395254 as in Example 8. Total RNA was isolated and analyzed by RT-qPCR, as in Example 8.\nFollowing siRNA treatment, cells were treated with compound no. 25690 or compound no. 395254 in the presence or absence of EGF. 16 hours after treatment with a PS-ASO with or without EGF, cells were harvested, and RNA levels were analyzed via RT-qPCR as in Example 8.", "note": "e = 2'-O-(2-methoxyethyl) (MOE); d = 2'-deoxy (DNA)"}
{"sequence": "AGGAAGGAAGCTGGCGATCT (sugars from the 5' end e5 d10 e5, all phosphorothioate, methylation of C not given here) [compound 25690]", "values": [{"measurement": "Drosha mRNA (% Control)", "setting": "6250 nM, Control", "result": 66.2, "unit": "% Control"}, {"measurement": "Drosha mRNA (% Control)", "setting": "6250 nM, Control Luciferase siRNA", "result": 35.2, "unit": "% Control"}, {"measurement": "Drosha mRNA (% Control)", "setting": "6250 nM, Control Luciferase siRNA, Table 26", "result": 47.8, "unit": "% Control"}, {"measurement": "Drosha mRNA (% Control)", "setting": "6250 nM, Control luciferase + EGF", "result": 40.9, "unit": "% Control"}, {"measurement": "Drosha mRNA (% Control)", "setting": "6250 nM, Control, Table 20", "result": 54.0, "unit": "% Control"}, {"measurement": "Drosha mRNA (% Control)", "setting": "6250 nM, EGF", "result": 48.4, "unit": "% Control"}, {"measurement": "Drosha mRNA (% Control)", "setting": "6250 nM, EGF+PD174265", "result": 64.7, "unit": "% Control"}, {"measurement": "Drosha mRNA (% Control)", "setting": "6250 nM, EGFR siRNA-1", "result": 41.9, "unit": "% Control"}, {"measurement": "Drosha mRNA (% Control)", "setting": "6250 nM, EGFR siRNA-2", "result": 39.2, "unit": "% Control"}, {"measurement": "Drosha mRNA (% Control)", "setting": "6250 nM, EGFR siRNA-2 + EGF", "result": 62.5, "unit": "% Control"}, {"measurement": "Drosha mRNA (% Control)", "setting": "6250 nM, EGFR siRNA-2, Table 26", "result": 64.8, "unit": "% Control"}, {"measurement": "Drosha mRNA (% Control)", "setting": "6250 nM, TGF", "result": 43.1, "unit": "% Control"}, {"measurement": "Drosha mRNA (% Control)", "setting": "6250 nM, TGF+PD174265", "result": 57.0, "unit": "% Control"}, {"measurement": "Drosha mRNA (% Control)", "setting": "10000 nM, Control", "result": 48.2, "unit": "% Control"}, {"measurement": "Drosha mRNA (% Control)", "setting": "10000 nM, EGF", "result": 27.7, "unit": "% Control"}, {"measurement": "Drosha mRNA (% Control)", "setting": "10000 nM, TGF", "result": 29.7, "unit": "% Control"}, {"measurement": "Drosha mRNA (% Control)", "setting": "12500 nM, Control", "result": 56.4, "unit": "% Control"}, {"measurement": "Drosha mRNA (% Control)", "setting": "12500 nM, Control Luciferase siRNA", "result": 29.3, "unit": "% Control"}, {"measurement": "Drosha mRNA (% Control)", "setting": "12500 nM, Control Luciferase siRNA, Table 26", "result": 41.0, "unit": "% Control"}, {"measurement": "Drosha mRNA (% Control)", "setting": "12500 nM, Control luciferase + EGF", "result": 30.9, "unit": "% Control"}, {"measurement": "Drosha mRNA (% Control)", "setting": "12500 nM, Control, Table 20", "result": 47.6, "unit": "% Control"}, {"measurement": "Drosha mRNA (% Control)", "setting": "12500 nM, EGF", "result": 40.1, "unit": "% Control"}, {"measurement": "Drosha mRNA (% Control)", "setting": "12500 nM, EGF+PD174265", "result": 53.6, "unit": "% Control"}, {"measurement": "Drosha mRNA (% Control)", "setting": "12500 nM, EGFR siRNA-1", "result": 32.4, "unit": "% Control"}, {"measurement": "Drosha mRNA (% Control)", "setting": "12500 nM, EGFR siRNA-2", "result": 39.1, "unit": "% Control"}, {"measurement": "Drosha mRNA (% Control)", "setting": "12500 nM, EGFR siRNA-2 + EGF", "result": 47.1, "unit": "% Control"}, {"measurement": "Drosha mRNA (% Control)", "setting": "12500 nM, EGFR siRNA-2, Table 26", "result": 49.2, "unit": "% Control"}, {"measurement": "Drosha mRNA (% Control)", "setting": "12500 nM, TGF", "result": 29.7, "unit": "% Control"}, {"measurement": "Drosha mRNA (% Control)", "setting": "12500 nM, TGF+PD174265", "result": 44.9, "unit": "% Control"}, {"measurement": "Drosha mRNA (% Control)", "setting": "20000 nM, Control", "result": 48.8, "unit": "% Control"}, {"measurement": "Drosha mRNA (% Control)", "setting": "20000 nM, EGF", "result": 25.4, "unit": "% Control"}, {"measurement": "Drosha mRNA (% Control)", "setting": "20000 nM, TGF", "result": 25.5, "unit": "% Control"}, {"measurement": "Drosha mRNA (% Control)", "setting": "25000 nM, Control", "result": 45.2, "unit": "% Control"}, {"measurement": "Drosha mRNA (% Control)", "setting": "25000 nM, Control Luciferase siRNA", "result": 24.0, "unit": "% Control"}, {"measurement": "Drosha mRNA (% Control)", "setting": "25000 nM, Control Luciferase siRNA, Table 26", "result": 37.2, "unit": "% Control"}, {"measurement": "Drosha mRNA (% Control)", "setting": "25000 nM, Control luciferase + EGF", "result": 27.1, "unit": "% Control"}, {"measurement": "Drosha mRNA (% Control)", "setting": "25000 nM, Control, Table 20", "result": 38.9, "unit": "% Control"}, {"measurement": "Drosha mRNA (% Control)", "setting": "25000 nM, EGF", "result": 40.1, "unit": "% Control"}, {"measurement": "Drosha mRNA (% Control)", "setting": "25000 nM, EGF+PD174265", "result": 51.2, "unit": "% Control"}, {"measurement": "Drosha mRNA (% Control)", "setting": "25000 nM, EGFR siRNA-1", "result": 29.9, "unit": "% Control"}, {"measurement": "Drosha mRNA (% Control)", "setting": "25000 nM, EGFR siRNA-2", "result": 35.5, "unit": "% Control"}, {"measurement": "Drosha mRNA (% Control)", "setting": "25000 nM, EGFR siRNA-2 + EGF", "result": 41.2, "unit": "% Control"}, {"measurement": "Drosha mRNA (% Control)", "setting": "25000 nM, EGFR siRNA-2, Table 26", "result": 42.3, "unit": "% Control"}, {"measurement": "Drosha mRNA (% Control)", "setting": "25000 nM, TGF", "result": 23.5, "unit": "% Control"}, {"measurement": "Drosha mRNA (% Control)", "setting": "25000 nM, TGF+PD174265", "result": 37.1, "unit": "% Control"}, {"measurement": "Drosha mRNA (% Control)", "setting": "40000 nM, Control", "result": 44.3, "unit": "% Control"}, {"measurement": "Drosha mRNA (% Control)", "setting": "40000 nM, EGF", "result": 23.6, "unit": "% Control"}, {"measurement": "Drosha mRNA (% Control)", "setting": "40000 nM, TGF", "result": 22.7, "unit": "% Control"}, {"measurement": "Drosha mRNA (% Control)", "setting": "50000 nM, Control", "result": 40.2, "unit": "% Control"}, {"measurement": "Drosha mRNA (% Control)", "setting": "50000 nM, Control Luciferase siRNA", "result": 22.4, "unit": "% Control"}, {"measurement": "Drosha mRNA (% Control)", "setting": "50000 nM, Control Luciferase siRNA, Table 26", "result": 33.1, "unit": "% Control"}, {"measurement": "Drosha mRNA (% Control)", "setting": "50000 nM, Control luciferase + EGF", "result": 23.2, "unit": "% Control"}]}
